Measurements from paper PMC6198970, “Safety, efficacy, and dose response of the maturation inhibitor GSK3532795 (formerly known as BMS-955176) plus tenofovir/emtricitabine once daily in treatment-naive HIV-1-infected adults: Week 24 primary analysis from a randomized Phase IIb trial” (PLoS ONE, 2018).
Like-named read-outs stand apart in the source and are kept apart here.

Columns and labels:
[1] = ref protocol Section 1.4.1.2, cited from earlier work
HIV-1 [2] = conditions: ref AI468002, cited from earlier work
HIV-1 [3] = test: Phase IIb study 205891: plasma HIV-1 RNA response at Week 24 (FDA snapshot, observed); format: in vivo, HIV-1-infected adults; conditions: Week 24, mITT; GSK3532795: range across 60, 120, 180 mg arms; EFV 600 mg; each + TDF/FTC
Experimental: The primary endpoint was determination of the proportion of participants with plasma HIV-1 RNA <40 copies/mL at Week 24 after treatment with GSK3532795 or efavirenz (EFV).
205891 was a Phase IIb, randomized, active-controlled, double-blind trial performed at 58 sites in 12 countries across South America, North America, South Africa, and Europe. Participants were randomized 1:1:1:1 to one of four treatment arms; GSK3532795 at doses of 60 mg, 120 mg or 180 mg once daily (QD), and one reference arm with EFV at a dose of 600 mg QD, each given in combination with TDF/FTC 300/200 mg QD.
Participants attended study visits at screening, on Day 1, and once every 4 weeks from Week 4 to Week 24 (telephonic visits were conducted at Week 20). Participants were expected to continue treatment, then, through Week 96, with visit intervals every 8–12 weeks. A post-dose safety follow-up visit was also conducted 12 weeks after treatment discontinuation. Plasma HIV-1 RNA levels were quantified by the Abbott RealTime HIV-1 assay.
The FDA-defined snapshot algorithm was used for primary endpoint efficacy assessment, using the last plasma HIV-1 RNA value in the pre-defined Week 24 visit window (± 6 weeks) to determine response. The modified intent-to-treat (mITT) population consisted of participants who received at least one dose of GSK3532795 or EFV. […]

[4] = set-up: method as in protocol Section 1.4.1.2; conditions: local lymph node assay in the mouse; ref protocol Section 1.4.1.2; cited from earlier work
HIV-1 [5] = tested on: HIV-1; set-up: method as in protocol Section 1.4.1.2; conditions: with representative drugs from NRTI, NNRTI, PI, and INI classes; ref protocol Section 1.4.1.2; cited from earlier work
[6] = tested on: 23 isolates of subtype C viruses; set-up: method as in protocol Section 1.4.1.2; conditions: 23 subtype C isolates; ref protocol Section 1.4.1.2; read-out: EC50, median; cited from earlier work
[7] = Part A, clade B, 10 days monotherapy, 5 mg

Compound: C=C(C)[C@@H]1CC[C@]2(NCCN3CCS(=O)(=O)CC3)CC[C@]3(C)[C@H](CC[C@@H]4[C@@]5(C)CC=C(c6ccc(C(=O)O)cc6)C(C)(C)[C@@H]5CC[C@]43C)[C@@H]12 [GSK3532795]
- Developmental toxicity classification ([1]; mice, no maternal toxicity at any dose): selective developmental toxicant
- Developmental NOAEL ([1]; mouse EFD): 45 mg/kg/day
- Cumulative postimplantation losses ([1]; printed dose 100 mg/kg/day, […] in control litters): 11.5%
- Reductions in fetal body weight relative to control values [1]: 5%
- Maximum decline log10 HIV-1 RNA, max (HIV-1 [2]; Part A, 10 mg): -1.76 Log10
- Maximum decline log10 HIV-1 RNA, mean (HIV-1 [2]; Part A, 10 mg): -1.05 Log10
- Maximum decline log10 HIV-1 RNA, median (HIV-1 [2]; Part A, 10 mg): -0.976 Log10
- Maximum decline log10 HIV-1 RNA, min (HIV-1 [2]; Part A, 10 mg): -0.64 Log10
- Maximum decline log10 HIV-1 RNA, max (HIV-1 [2]; Part A, 20 mg): -2.12 Log10
- Maximum decline log10 HIV-1 RNA, mean (HIV-1 [2]; Part A, 20 mg): -1.17 Log10
- Maximum decline log10 HIV-1 RNA, median (HIV-1 [2]; Part A, 20 mg): -1.115 Log10
- Maximum decline log10 HIV-1 RNA, min (HIV-1 [2]; Part A, 20 mg): -0.13 Log10
- Maximum decline log10 HIV-1 RNA, max (HIV-1 [2]; Part A, 40 mg): -1.88 Log10
- Maximum decline log10 HIV-1 RNA, mean (HIV-1 [2]; Part A, 40 mg): -1.55 Log10
- Maximum decline log10 HIV-1 RNA, median (HIV-1 [2]; Part A, 40 mg): -1.701 Log10
- Maximum decline log10 HIV-1 RNA, min (HIV-1 [2]; Part A, 40 mg): -0.93 Log10
- Maximum decline log10 HIV-1 RNA, max (HIV-1 [2]; Part A, 80 mg): -1.82 Log10
- Maximum decline log10 HIV-1 RNA, mean (HIV-1 [2]; Part A, 80 mg): -1.52 Log10
- Maximum decline log10 HIV-1 RNA, median (HIV-1 [2]; Part A, 80 mg): -1.555 Log10
- Maximum decline log10 HIV-1 RNA, min (HIV-1 [2]; Part A, 80 mg): -1.04 Log10
- Maximum decline log10 HIV-1 RNA, max (HIV-1 [2]; Part A, 120 mg): -2.07 Log10
- Maximum decline log10 HIV-1 RNA, mean (HIV-1 [2]; Part A, 120 mg): -1.53 Log10
- Maximum decline log10 HIV-1 RNA, median (HIV-1 [2]; Part A, 120 mg): -1.654 Log10
- Maximum decline log10 HIV-1 RNA, min (HIV-1 [2]; Part A, 120 mg): -0.83 Log10
- Maximum decline log10 HIV-1 RNA, max (HIV-1 [2]; [7]): -0.78 Log10
- Maximum decline log10 HIV-1 RNA, mean (HIV-1 [2]; [7]): -0.49 Log10
- Maximum decline log10 HIV-1 RNA, median (HIV-1 [2]; [7]): -0.498 Log10
- Maximum decline log10 HIV-1 RNA, min (HIV-1 [2]; [7]): -0.22 Log10
- Maximum decline log10 HIV-1 RNA, max (HIV-1 [2]; Part C, clade C, 40 mg): -2.03 Log10
- Maximum decline log10 HIV-1 RNA, median (HIV-1 [2]; Part C, clade C, 40 mg): -1.285 Log10
- Maximum decline log10 HIV-1 RNA, min (HIV-1 [2]; Part C, clade C, 40 mg): -1.04 Log10
- Maximum decline log10 HIV-1 RNA, mean (HIV-1 [2]; Part C, clade C, 10 days monotherapy, 40 mg): -1.5 Log10
- Safety in Phase 2a (HIV-1 [2]; alone or with ATV ± RTV for 10-28 days, preliminary): no deaths, SAEs, or AEs leading to discontinuation
- Median maximal reductions in HIV-1 RNA (HIV-1 [2]; doses 40 mg SDD once daily and above, clade B and clade C): > 1 log10
- Participants achieving HIV-1 RNA <40 copies/mL (HIV-1 [3]): 76–83%
- Skin sensitization [4]: not a skin sensitizer
- Effect of 2-drug combinations (HIV-1 [5]): additive to synergistic effects
- EC50 [6]: 5.6 nM
